The text below walks through data of EP2736507B1, “BASIC ALPHA LIPOIC ACID SOLUTION AND ITS USES” (ITAPHARMA S.R.L., priority 2011, dated 2013).

Data set [1] deals with HepG2 cells. In words: Cell vitality (ATP lite kit). In kind it is cell-based, human. To be noted: for Vitality %): [conc.]final 1.0 mM, HepG2, 72-hour (3x24 hr) treatment, control = 100. Here is the method: In order to analyse the effects of the solution of the invention, alpha lipoic acid contained therein was digested in artificial gastric juice and subsequently administered in the culture medium at the final concentration of 0.5 or 1mM. The cell vitality effects recorded were compared with those achieved in a parallel control experiment wherein alpha lipoic acid dissolved in a solvent of election for cell studies, i.e. DMSO (but not digested in gastric juice) was used. […]

Data set [2] deals with SK-N-SH cell cultures. In words: ROS induced from H2O2 in cell cultures. In kind it is cell-based, human. Conditions: for Ros (% compared to ctrl) 24h: 24h pre-treatment, then 2 hours 1.5mM mM H2O2; for Ros (% compared to ctrl) 48h: 48h pre-treatment, then H2O2. Here is the method:
Another important function ascribable to lipoic acid is that of contrasting the formation of reactive species of oxygen induced from H2O2. […] A further aim was to verify whether R-alpha lipoic acid retained this function also in an aqueous solution. For this reason, increasing doses of the same, coming from the above-used solution of the invention and subjected to digestion in artificial gastric juice, were added to the culture medium for different intervals of time (24 hr and 48 hr) before inducing an oxidative stress with H2O2. The same reaction was performed as a control, by using the R-alphaLA prepared in DMSO, but dissolved directly in medium to obtain the same working concentrations.
In Table 10, the values of ROS are reported as % with respect to those observed in the controls after 24 hours of maintenance in the culture and 2 hours of treatment with 1.5mM mM H2O2. In the first box of the Table, the results are shown as obtained after administration of R-alphaLA prepared in DMSO and then diluted directly in the medium to obtain the reference final concentrations; in the second box, on the other hand, R-alphaLA was first dissolved in the solution of the invention, subsequently digested in gastric juice and finally diluted in the medium. As summarised in Table 10, in each case, a dose-dependent response of alpha lipoic acid in preventing the formation of the ROS was observed over the first 24 hours.

For data set [3], the system named is HepG2 cells. Nature of the data set: Glucose in the medium, insulin-resistant diabetes cellular model (Glucose assay kit). It counts as cell-based, human. Conditions: 1 mM for 48 hr; HepG2 in medium enriched with glucose 30mM; reference control = 100%. Here is the method: Lastly, the hypoglycaemia-inducing action of the lipoic acid formulated in aqueous solution of the invention was also evaluated, by utilising an insulin-resistant diabetes cellular model. HepG2 cells cultivated in a medium enriched with glucose and free of insulin mimicked certain conditions present in the hepatocytes of diabetic patients; in addition, certain functions of the culture medium, considered as a container of nutritional substances and an accumulation container for those substances excreted, could be compared to plasma circulation. […]
Table 11 reports some of the most significant results achieved by using the Sigma Aldrich Glucose assay kit to determine the glucose; more specifically, the values obtained from the culture medium following administration for 48 hr of lipoic acid (1mM) prepared in DMSO or formulated in aqueous solution at 30 % of propylene glycol, in accordance with the present invention. The most significant decrease in glucose was in fact observed with the R-enantiomer of alpha lipoic acid in the solution of the invention.

The conditions of data set [4]: humans, oral route, 600 mg, various formulations; cited from earlier work.

Consider `O=C(O)CCCCC1CCSS1` (racemic) [(RS) alphaLA (in DMSO), alpha lipoic acid], for which, in data set [1], the “Vitality %)” value is on record as 35.48%.
Regarding `O=C(O)CCCC[C@@H]1CCSS1` [(R) alphaLA (in DMSO), alpha-R-lipoic acid], in data set [1] (1mM, 48-hr treatment, dissolved in DMSO, HepG2, previous tests), the “cell vitality values compared to the control” value is on record as “halved”. The “Vitality %)” value in data set [1] came to 40.33%. Also, in data set [2] (100µM), the “Ros (% compared to ctrl) 24h” value was determined as 77.87% and the “Ros (% compared to ctrl) 48h” value came out at 99.26%. For the same compound, in data set [2] (200µM), the “Ros (% compared to ctrl) 24h” value is reported as 49.18% and the “Ros (% compared to ctrl) 48h” value was 103.98%. The “Glucose in the medium (%)” value in data set [3] is given as 89%.
As to `O=C(O)CCCCC1CCSS1` (stereo not drawn) [lipoic acid, 1,2-dithiolane-3-pentanoic acid], in data set [4], the bioavailability entry is “less than 30%”.
